Test results taken from patent publication US20180071307A1, “MEDICINAL COMPOSITION FOR ALLEVIATING ENDOMETRIOSIS AND COMPLICATIONS THEREOF AND USE OF THE SAME” (NATIONAL SUN YAT-SEN UNIVERSITY, priority 2016, published 2018).

How the values were obtained:
ES-2 cells = experiment: cell cycle analysis by flow cytometry using propidium iodide DNA staining, ES-2; type: cell-based, human; settings: after 96 h of treatment
Excerpt: (§1) For anti-ribosome biogenesis assays, including cell growth, cell migration and cell cycle analysis, ovarian clear cells were maintained for five days in culture medium with or without RNA polymerase I inhibitor, CX-5461 (Selleckchem, Houston, Tex.) or GSK2126458 (GlaxoSmithKline, Middlesex, United Kingdom).
(§2) Please refer to FIGS. 5A to 5D, which illustrate that RNA polymerase 1 inhibition suppresses cell growth and mobility of ovarian clear cells. FIG. 5A is depicted to cells treated with the RNA polymerase 1 inhibitor, CX-5461, at a final concentration of 25 nM. CX-5461 effects on downstream effectors of ribosome biogenesis were measured by qPCR at the indicated time points. Data were represented as means of triplicates with standard variations. FIG. 5B is depicted to CX-5461 effects on cell growth were assessed via MTT assay. FIG. 5C is depicted to cell mobility measured using wound-healing migration assays. Cells migrating into the detection zone were counted and averaged from eight replicates. FIG. 5D is depicted to treated cells that were analyzed at the indicated time points by flow cytometry using propidium iodide DNA staining.

[1] = tested on: ovarian clear cell carcinoma cell lines ES-2 and TOV-21G; experiment: cell growth via MTT assay; type: cell-based, human; settings: after 48 h of treatment
Excerpt: as §1
(§3) Please refer to FIGS. 4A to 4E, which illustrate that mTOR/c-Myc inhibition suppresses cell growth and mobility of ovarian clear cells according to an embodiment of the present invention. FIG. 4A is depicted to ovarian cancer cell lines, ES-2 and TOV-2IG, treated with the mTOR/c-Myc inhibitor, GSK2126458, at a final concentration of 50 nM. GSK2126458 effects on effectors of ribosome biogenesis were measured by qPCR at the indicated time points. […] FIG. 4B is depicted to GSK2126458 effects on cell growth were assessed via MTT assay. FIG. 4C is depicted to cell mobility measured using wound-healing migration assays. Cells migrating into the detection zone were counted and averaged from eight replicates. […] FIG. 4E is depicted to cell cycle inhibited by GSK2126458 after 48 hours of treatment and analyzed by flow cytometry using propidium iodide DNA staining. […]
(§4) Please refer to FIGS. 5A to 5D, which illustrate that RNA polymerase 1 inhibition suppresses cell growth and mobility of ovarian clear cells. […] FIG. 5B is depicted to CX-5461 effects on cell growth were assessed via MTT assay. […]

[2] = tested on: ovarian clear cell carcinoma cell lines ES-2 and TOV-21G; experiment: wound-healing migration assay (cell mobility); type: cell-based, human; settings: after 48 h of treatment
Excerpt: as §1, §3, §4

[3] = tested on: inflammatory cells (small peritoneal macrophages, neutrophils) in abdominal cavity; experiment: mouse model of endometriosis: inflammatory cells in abdominal cavity; type: in vivo, C57BL/6 mice; settings: comparing with naive, sham and vehicles; for small peritoneal macrophages in abdominal cavity: three weeks of treatment (FIG. 8A); for neutrophils in abdominal cavity: three weeks of treatment (FIG. 8B)
Method: (§5) Mature (approximately 8-week-old) female C57BL/6 mice were purchased from Harlan Laboratories (Derby, UK) and were allowed to acclimate for 1 week before surgery. Mice were maintained on standard chow and water available ad libitum and were housed in environmentally controlled facilities illuminated between 7:00 AM and 7:00 PM. All the animal procedures were performed in accordance with legal requirements.
(§6) Typically, menstruation was induced in adult donor mice (approximately 8 weeks of age) using a protocol developed as aforemented. In brief, long-term ovariectomized (OVE) mice (day 1) were primed with s.c. injections of 100 ng of estradiol-17β (days 7 to 9), treated with progesterone (P4; Sigma-Aldrich, Dorset, UK) delivered via a SILASTIC implant (Dow Corning Corp, Midland, Mich.) from days 13 to 19, and injected with 5 ng of estradiol-17β in sesame oil on days 13, 14, and 15. Decidualization was induced in one uterine horn using […] of oil (day 15), and endometrial tissue in the process of being shed from the decidualized horn was recovered from mice culled on day 19, 4 hours after P4 withdrawal (removal of pellet) by opening the horn longitudinally in a petri dish and scraping the tissue away from the myometrial layer using a scalpel. The tissue mass was suspended in 0.2 mL of PBS and passed through a 19-gauge needle before being injected i.p. into anesthetized recipient mice (approximately 8 weeks of age) that had been previously ovariectomized and implanted with an estradiol-17β (Sigma-Aldrich) SILASTIC implant (FIG. 6). Tissue from one decidualized donor horn was used to inoculate each recipient mouse (approximately 40 mg tissue/0.2 mL PBS per mouse) on day 19. In FIG. 6, there are four groups: B, injecting recipient mice with EV once and vehicle of CX-5461 every Monday, Wednesday and Friday for three weeks; GSK, injecting recipient mice with EV once and GSK2126458 on Monday to Friday for three weeks; A, injecting recipient mice with EV once and vehicle of GSK2126458 on Monday to Friday for three weeks; Sham, injecting recipient mice with EV once (no endometriosis, hormone treatment); Naive, mice without endometriosis or treated with any hormone or drug.
[…] E2 (E2, 100 ng/100 μL or 5 ng/100 μL) was diluted in sesame oil. Estradiol valerate (EV, 500 ng/100 μL) was diluted in sesame oil. P4 pellet was fused with progesterone (P4; Sigma-Aldrich, Dorset, UK) delivered via a SILASTIC implant (Dow Corning Corp, Midland, Mich.). […]

endometriosis lesions = experiment: mouse model of endometriosis: lesion numbers; type: in vivo, C57BL/6 mice; settings: compared to respective vehicle; CX-5461 1.25 mg/100 μL thrice per week, GSK2126458 0.075 mg/100 μL five times per week, three weeks
Method: as §5
Typically, menstruation was induced in adult donor mice (approximately 8 weeks of age) using a protocol developed as aforemented. In brief, long-term ovariectomized (OVE) mice (day 1) were primed with s.c. injections of 100 ng of estradiol-17β (days 7 to 9), treated with progesterone (P4; Sigma-Aldrich, Dorset, UK) delivered via a SILASTIC implant (Dow Corning Corp, Midland, Mich.) from days 13 to 19, and injected with 5 ng of estradiol-17β in sesame oil on days 13, 14, and 15. Decidualization was induced in one uterine horn using […] of oil (day 15), and endometrial tissue in the process of being shed from the decidualized horn was recovered from mice culled on day 19, 4 hours after P4 withdrawal (removal of pellet) by opening the horn longitudinally in a petri dish and scraping the tissue away from the myometrial layer using a scalpel. […]

[4] = tested on: effectors of ribosome biogenesis (selected snoRNAs and RPs); experiment: qPCR of effectors of ribosome biogenesis in ovarian clear cell carcinoma cells; type: cell-based, human; settings: ES-2 and TOV-21G, following 24 h of treatment
Excerpt: as §1, §3, §4

[5] = tested on: ovarian clear cell carcinoma cell lines ES-2 and TOV-21G; experiment: DNA synthesis (BrdU incorporation); type: cell-based, human; settings: after 48 h of treatment
Excerpt: as §1
(§7) Please refer to FIGS. 4A to 4E, which illustrate that mTOR/c-Myc inhibition suppresses cell growth and mobility of ovarian clear cells according to an embodiment of the present invention. FIG. 4A is depicted to ovarian cancer cell lines, ES-2 and TOV-2IG, treated with the mTOR/c-Myc inhibitor, GSK2126458, at a final concentration of 50 nM. GSK2126458 effects on effectors of ribosome biogenesis were measured by qPCR at the indicated time points. Data were represented as means of triplicates with standard variations. FIG. 4B is depicted to GSK2126458 effects on cell growth were assessed via MTT assay. FIG. 4C is depicted to cell mobility measured using wound-healing migration assays. Cells migrating into the detection zone were counted and averaged from eight replicates. FIG. 4D is depicted to DNA synthesis (BrdU incorporation) of cells influenced by GSK2126458. FIG. 4E is depicted to cell cycle inhibited by GSK2126458 after 48 hours of treatment and analyzed by flow cytometry using propidium iodide DNA staining. The cell cycle of many cells was inhibited and arrested at G1 phase.

[6] = tested on: endometriosis-related pain; experiment: mouse model of endometriosis: pressure pain thresholds (mechanical hyperalgesia); type: in vivo, C57BL/6 mice; settings: versus vehicles; for abdominal retraction threshold: day 33 to day 40 (FIG. 9B); for paw withdrawal threshold: hind paw, day 33 to day 40 (FIG. 9C)
Method: as §5
as §6, with “In FIG. 6, there are four groups: B, injecting recipient mice with EV once and vehicle of CX-5461 every Monday, Wednesday and Friday for three weeks; GSK, injecting recipient mice with EV once and GSK2126458 on Monday to Friday for three weeks; A, injecting recipient mice with EV once and vehicle of GSK2126458 on Monday to Friday for three weeks; Sham, injecting recipient mice with EV once (no endometriosis, hormone treatment); Naive, mice without endometriosis or treated with any hormone or drug.” left out
Pressure pain thresholds were assessed by a commercially available pain evaluation kit (Touch Test® Sensory Evaluators (North Coast Medical Inc., CA, U.S.A.). This pain evaluation kit has different probes (or needles) of different diameters, which were respectively stab the abdomen or the palmar side of the hind paw of mice. Mice were instructed to signal when the stimulus became painful, and observed which size cause painful. Threshold levels (gravity, g) were assessed before and after the test, and the average of three measures were calculated, for evaluating abdominal retraction threshold (g) or paw withdrawal threshold (g) of each mouse. […]

[7] = tested on: endometriosis-related pain; experiment: mouse model of endometriosis: tunnel entries (overall activity); type: in vivo, C57BL/6 mice; settings: versus vehicles; day 33 to day 40 (FIG. 9A)
Method: as §5
Typically, menstruation was induced in adult donor mice (approximately 8 weeks of age) using a protocol developed as aforemented. In brief, long-term ovariectomized (OVE) mice (day 1) were primed with s.c. injections of 100 ng of estradiol-17β (days 7 to 9), treated with progesterone (P4; Sigma-Aldrich, Dorset, UK) delivered via a SILASTIC implant (Dow Corning Corp, Midland, Mich.) from days 13 to 19, and injected with 5 ng of estradiol-17β in sesame oil on days 13, 14, and 15. […]
On day 33 to day 40, some behavior tests were scored from tunnel entries and pressure pain thresholds. Mice freely moved in three cages connected by tunnels, and numbers of tunnel entered by each mouse were measured in five minutes, and the average of three measures were calculated, for evaluating overall activity of each mouse. […]

TOV-21G cells = experiment: cell cycle analysis by flow cytometry using propidium iodide DNA staining, TOV-21G; type: cell-based, human; settings: after 96 h of treatment
Excerpt: as §1, §2

[8] = tested on: ovarian clear cell carcinoma cell lines ES-2 and TOV-21G; experiment: cell cycle analysis by flow cytometry using propidium iodide DNA staining (both cell lines, result in words); type: cell-based, human; settings: after 48 hours of treatment (FIG. 4E)
Excerpt: as §1, §7

Compound	cell arrest at G2/M-phase (ES-2 cells)	cell death (ES-2 cells)	cell proliferation rate [1]	cell mobility rate [2]	small peritoneal macrophages in abdominal cavity [3]	neutrophils in abdominal cavity [3]	lesion numbers (endometriosis lesions)	expression of the selected snoRNAs and RPs (qPCR, FIG. 5A) ([4]; CX-5461 at 25 nM)	expression of the selected snoRNAs and RPs (qPCR, FIG. 4A) ([4]; FIG. 4A legend: GSK2126458 at 50 nM)	DNA synthesis [5]	abdominal retraction threshold [6]	paw withdrawal threshold [6]	overall activity (tunnel entries in five minutes) [7]	cell arrest at G2/M-phase (TOV-21G cells)	cell death (TOV-21G cells)	cell cycle arrest [8]	cells of sub-G1 phase (implying cell death) [8]
Cc1cnc(CNC(=O)c2c(=O)c3ccc(N4CCCN(C)CC4)nc3n3c2sc2ccccc23)cn1 [CX-5461]	48.1%	12.3%	decreased	decreased	significantly reduced	significantly reduced	significantly reduced	reduced	reduced	inhibition	higher	higher	more active	52.3%	23.4%	–	–
COc1ncc(-c2ccc3nccc(-c4ccnnc4)c3c2)cc1NS(=O)(=O)c1ccc(F)cc1F [GSK2126458, 2,4-difluoro-N-[2-methoxy-5-[4-(4-pyridazinyl)-6-quinolinyl]-3-pyridinyl]benzenesulfonamide]	–	–	decreased	decreased	significantly reduced	significantly reduced	significantly reduced	–	–	inhibition	higher	higher	more active	–	–	cell arrest at G1-phase	increased
